The source of these data is publication PMC4588877, “Guanine nucleotide exchange factor 2 for Rab5 proteins coordinated with GLUP6/GEF regulates the intracellular transport of the proglutelin from the Golgi apparatus to the protein storage vacuole in rice endosperm” (Journal of Experimental Botany, 2015).

Assay [1] addresses T1, Rab5c (Oryza sativa, UniProt Q75HA2).
T1 construct: gene Os03g0666500; GST fusion (pGEX 4T-1), E. coli BL21 (DE3); tag kept
T1 sequence (Q75HA2 1-203): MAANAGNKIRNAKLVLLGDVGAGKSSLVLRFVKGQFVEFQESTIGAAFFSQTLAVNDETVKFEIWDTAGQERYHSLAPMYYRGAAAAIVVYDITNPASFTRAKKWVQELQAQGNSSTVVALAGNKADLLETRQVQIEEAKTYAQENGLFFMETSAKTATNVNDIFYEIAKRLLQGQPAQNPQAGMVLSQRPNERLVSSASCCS
Briefly: GDP/GMP-PNP exchange, Trp intrinsic fluorescence (ex […] nm, em […] nm). It is filed as binding. As to conditions: 1 µM GST-Rab preloaded with GDP; 0.1 mM GMP-PNP; GST-GLUP6/GEF or GST-Rab5-GEF2 0-1 µM as exchange factor; 20 mM Tris-HCl pH 8.0, 150 mM NaCl, 0.5 mM MgCl2.

For assay [2], the target named is T2, GLUP4/Rab5a (Oryza sativa, UniProt Q0ILQ6).
T2 construct: GST fusion (pGEX 4T-1), E. coli BL21 (DE3); tag kept
T2 sequence (Q0ILQ6 1-203): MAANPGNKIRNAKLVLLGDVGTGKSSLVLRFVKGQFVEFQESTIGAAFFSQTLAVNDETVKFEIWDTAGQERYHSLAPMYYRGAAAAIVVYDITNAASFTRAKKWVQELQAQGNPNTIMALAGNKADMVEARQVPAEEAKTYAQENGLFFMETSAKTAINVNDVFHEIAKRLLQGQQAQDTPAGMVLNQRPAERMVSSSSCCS
The assay is described as above. It is filed as binding. As to conditions: 1 µM GST-Rab preloaded with GDP; 0.1 mM GMP-PNP; GST-Rab5-GEF2 0-1 µM as exchange factor; 20 mM Tris-HCl pH 8.0, 150 mM NaCl, 0.5 mM MgCl2.

The target in assay [3] is T3, Rab5b (Oryza sativa, UniProt Q10RN9).
T3 construct: gene Os03g0151900; GST fusion (pGEX 4T-1), E. coli BL21 (DE3); tag kept
T3 sequence (Q10RN9 1-199): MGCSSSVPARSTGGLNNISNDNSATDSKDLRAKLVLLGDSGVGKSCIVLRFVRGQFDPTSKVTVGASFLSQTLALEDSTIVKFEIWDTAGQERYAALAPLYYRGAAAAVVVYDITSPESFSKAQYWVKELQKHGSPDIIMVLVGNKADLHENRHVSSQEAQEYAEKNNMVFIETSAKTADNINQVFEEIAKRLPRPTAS
The description is as above. It is filed as binding. As to conditions: 1 µM GST-Rab preloaded with GDP; 0.1 mM GMP-PNP; GST-GLUP6/GEF or GST-Rab5-GEF2 0-1 µM as exchange factor; 20 mM Tris-HCl pH 8.0, 150 mM NaCl, 0.5 mM MgCl2.

The target of assay [4] is GLUP4/Rab5a (rice) (UniProt Q0ILQ6). Nature of the assay: SPR; BIACORE J; GLUP4/Rab5a immobilised on Sensor Chip CM5; Rab5-GEF2 or GLUP6/GEF (1.5, 3.5, 5, 6.5, 10.5 μM) applied for 120 s at 30 μl/min in 10 mM HEPES-NaOH pH 7.4, 0.15 M NaCl, 0.5 mM MgCl2, 10 mM GDP, 0.1% Triton X-100; apparent KD from association and dissociation curves.

Turning to `Nc1nc2c(ncn2[C@@H]2O[C@H](COP(=O)(O)OP(=O)(O)NP(=O)(O)O)[C@@H](O)[C@H]2O)c(=O)[nH]1` [GMP-PNP], the “GDP/GMP-PNP exchange, Trp intrinsic fluorescence (ex 298 nm, em 340 nm)” value in assay [1] is “Rab5b and Rab5c were activated by GLUP6/GEF in a dose-dependent manner”; in assay [2], “Rab5-GEF2 activated GLUP4/Rab5a, the plant-specific Rab5b, and Rab5c in a dose-dependent manner”; in assay [3], “Rab5b and Rab5c were activated by GLUP6/GEF in a dose-dependent manner”. In the case of GLUP6/GEF (natural protein), the Kd in assay [4] was found to be 2100 nM. Rab5-GEF2 (natural protein): the Kd in assay [4] was 1700 nM.
